Laboratory results as given in article PMC3652196, “Pharmacometrics of 3-Methoxypterostilbene: A Component of Traditional Chinese Medicinal Plants” (Evidence-based Complementary and Alternative Medicine : eCAM, 2013).
“Also recorded” adds a separate entry of the source.

Key:
COX-2 = target: T1, COX-2 (Homo sapiens, UniProt P35354); experiment: COX inhibitor screening assay (EIA of prostaglandins), COX-2; type: biochemical
T1 construct: purchased Cayman Chemical 560131
T1 sequence (P35354 18-604): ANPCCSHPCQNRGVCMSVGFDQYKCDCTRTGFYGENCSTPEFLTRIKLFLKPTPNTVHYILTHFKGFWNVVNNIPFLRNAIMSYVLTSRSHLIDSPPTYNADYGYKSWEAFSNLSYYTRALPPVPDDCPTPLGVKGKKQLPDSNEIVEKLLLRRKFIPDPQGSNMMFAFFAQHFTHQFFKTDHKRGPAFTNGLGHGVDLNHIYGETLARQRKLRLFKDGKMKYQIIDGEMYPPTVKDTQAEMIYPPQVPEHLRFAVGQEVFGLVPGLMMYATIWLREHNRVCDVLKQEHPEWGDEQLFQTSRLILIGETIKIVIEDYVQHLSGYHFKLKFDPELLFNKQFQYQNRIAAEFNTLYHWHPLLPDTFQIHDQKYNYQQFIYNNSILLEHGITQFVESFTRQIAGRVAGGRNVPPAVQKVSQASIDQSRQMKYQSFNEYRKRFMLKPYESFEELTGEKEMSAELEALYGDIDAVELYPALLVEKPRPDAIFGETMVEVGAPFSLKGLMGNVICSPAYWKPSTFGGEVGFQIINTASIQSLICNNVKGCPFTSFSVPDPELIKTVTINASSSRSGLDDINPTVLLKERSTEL
Protocol: (§1) The inhibition of COX-1 and -2 by 3-methoxypterostilbene was measured through the use of a three-day commercial assay kit. The assay relied on the quantification of the prostanoid product based on enzyme immunoassay (EIA), which uses a nonspecific antibody for prostaglandins (PGs). The constant concentration of the PG-AChE-tracer and the varying concentrations of the PGs available to bind to the antiserum is inversely proportional to the concentration of free PGs in the well. For this assay, 3-methoxypterostilbene was dissolved in DMSO over the concentration range of 1–250 μg/mL. Ibuprofen and etodolac, COX-2 preferential NSAIDs, were dissolved in DMSO and used as controls over the concentration range of 1–250 μg/mL. Reagents were prepared according to the manufacturer's instructions that accompanied the kit. The ELISA plate for this purpose was read at an absorbance of 415 nm within 10 minutes at room temperature (23 ± 1°C) using the Synergy HT multiwell plate reader and Gen5 data analysis software (Biotek Instruments Inc., Winooski, VT, USA). The assay was performed in quadruplet. For more information regarding the assay protocol, please refer to the instructions for the kit (COX Inhibitor Screening Assay Kit from Cayman Chemical—Cat. no. 560131).

[1] = tested on: human peripheral blood mononuclear cells; settings: cited from earlier work
[2] = target: T2, α-amylase from porcine pancreas type VI-B (Sus scrofa, UniProt P00690); experiment: α-Amylase inhibition colorimetric assay (BPNPG7, amylase HR reagent); type: biochemical
T2 construct: α-amylase from porcine pancreas type VI-B; purchased Sigma-Aldrich; host or cells: porcine pancreas
T2 sequence (P00690 16-511): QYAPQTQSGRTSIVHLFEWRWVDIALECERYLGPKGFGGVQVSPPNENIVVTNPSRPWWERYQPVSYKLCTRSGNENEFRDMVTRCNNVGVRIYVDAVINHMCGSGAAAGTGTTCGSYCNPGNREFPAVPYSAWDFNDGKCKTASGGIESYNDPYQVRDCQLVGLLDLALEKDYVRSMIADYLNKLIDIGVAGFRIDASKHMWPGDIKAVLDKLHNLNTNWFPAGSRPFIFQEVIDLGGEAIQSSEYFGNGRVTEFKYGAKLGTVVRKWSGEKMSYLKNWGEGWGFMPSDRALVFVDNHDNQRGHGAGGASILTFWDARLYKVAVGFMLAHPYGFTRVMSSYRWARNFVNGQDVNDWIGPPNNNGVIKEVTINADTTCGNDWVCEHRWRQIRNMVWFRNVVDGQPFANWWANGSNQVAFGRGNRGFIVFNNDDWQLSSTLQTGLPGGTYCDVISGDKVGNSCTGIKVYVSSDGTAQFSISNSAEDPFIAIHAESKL

COX-1 = target: T3, COX-1 (Ovis aries, UniProt P05979); experiment: COX inhibitor screening assay (EIA of prostaglandins), COX-1; type: biochemical
T3 construct: purchased Cayman Chemical 560131
T3 sequence (P05979 25-600): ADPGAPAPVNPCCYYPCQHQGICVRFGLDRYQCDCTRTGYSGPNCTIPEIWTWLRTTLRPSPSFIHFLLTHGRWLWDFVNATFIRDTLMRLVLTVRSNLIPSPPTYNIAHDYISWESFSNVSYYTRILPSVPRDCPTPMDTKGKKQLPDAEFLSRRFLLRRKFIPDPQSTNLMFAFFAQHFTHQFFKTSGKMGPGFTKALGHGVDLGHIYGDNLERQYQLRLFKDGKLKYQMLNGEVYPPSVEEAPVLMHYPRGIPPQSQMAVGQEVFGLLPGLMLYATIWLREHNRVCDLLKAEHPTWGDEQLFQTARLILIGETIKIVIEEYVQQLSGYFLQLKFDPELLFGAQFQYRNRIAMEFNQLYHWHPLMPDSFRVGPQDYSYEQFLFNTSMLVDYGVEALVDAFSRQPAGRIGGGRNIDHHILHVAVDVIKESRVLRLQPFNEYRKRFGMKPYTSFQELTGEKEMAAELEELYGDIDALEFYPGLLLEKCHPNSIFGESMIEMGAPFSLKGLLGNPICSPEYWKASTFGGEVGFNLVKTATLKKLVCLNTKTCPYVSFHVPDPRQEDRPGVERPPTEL
Protocol: as §1

9 KB = tested on: 9 KB; set-up: method as in PMID 3598597; settings: cited from earlier work

For COc1cc(/C=C/c2ccc(O)c(OC)c2)cc(OC)c1 [3-methoxypterostilbene, trans-3,3′-5-trimethoxy-4′-hydro-xystilbene], the “COX-2 inhibition versus NSAIDs (in words)” value (COX-2; 10 μg/mL) is listed as “statistically greater inhibition (P < 0.05) than etodolac at 1 μg/mL and ibuprofen at 250 μg/mL”, the “COX-2 inhibitory activity (in words)” value (COX-2; 1, 10 and 250 μg/mL) is listed as “moderate inhibition of COX-2” and the “Inhibition of lipopolysaccharide-induced tissue factor expression” value [1] is listed as “as effective as resveratrol”. The “α-Amylase inhibition (in words)” value ([2]; 0 to 200 μg/mL, n = 6) was “relatively weak inhibition of α-amylase”, the “α-Amylase activity at the highest concentrations tested (in words)” value ([2]; highest concentrations tested) was “appears to increase activity of α-amylase” and the “COX-1 inhibition versus NSAIDs (in words)” value (COX-1; 250 μg/mL, compared with ibuprofen and etodolac) was “significantly greater activity (P < 0.05) than the NSAIDs at low doses”. For the same molecule, the “COX-1 inhibitory activity (in words)” value (COX-1; 1, 10 and 250 μg/mL) was “positive concentration-dependent inhibitory activity; also recorded: strong COX-1 inhibition comparable to two NSAIDs” and the “Activity in 9 KB cytotoxicity assay compared with piceatannol” value (9 KB) was “significantly greater activity”.
